# Tests used:
# Aspergillus flavus = assay: MIC, YAG medium, Aspergillus flavus; format: cell-based; settings: Aspergillus flavus; YAG medium; read-out: MIC A Flavus 01
# Outline: (§1)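 In YAG medium (1% glucose, 1% ammonium chloride, 0.5% yeast extract), Aspergillus strains at 1-2×10^4 cfu/ml were read after 24 hrs at 35° C, with MIC at >70% growth inhibition by OD485. C. albicans was run in MOPS-buffered RPMI, pH7.0, at 1-2×10^3 cfu/ml for 24-48 hrs, with MIC at >80% inhibition. The drug range was 50-0.05 mg/L.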
# [1] = test system: Aspergillus fumigatus AF293; assay: MIC, YAG medium, Aspergillus fumigatus AF293; format: cell-based; settings: Aspergillus fumigatus, AF293; YAG medium; read-out: MIC A Fum. 293
# Outline: as §1
# Aspergillus niger = assay: MIC, YAG medium, Aspergillus niger; format: cell-based; settings: Aspergillus niger; YAG medium; read-out: MIC A Niger 1
# Outline: as §1
# Aspergillus terreus = assay: MIC, YAG medium, Aspergillus terreus; format: cell-based; settings: Aspergillus terreus; YAG medium; read-out: MIC A Terreus 4
# Outline: as §1
# [2] = test system: Aspergillus fumigatus AF210; assay: MIC, YAG medium, Aspergillus fumigatus AF210; format: cell-based; settings: Aspergillus fumigatus, AF210; YAG medium; read-out: MIC A Fum. 210
# Outline: as §1
# A Terreus 49 = assay: MIC, YAG medium, A Terreus 49; format: cell-based, Aspergillus terreus; settings: Aspergillus terreus; YAG medium; read-out: MIC A Terreus 49
# Outline: as §1
# Candida albicans = assay: MIC, RPMI medium, Candida albicans; format: cell-based; settings: read-out: MIC C. albicans
# Method: (§2) Measurement of Minimum Inhibitory Concentrations (MICs)
# (§3) Between 1 and 5 mgs of compound were accurately weighed out into a sterile Eppendorf tube. The compound was dissolved in DMSO to give a solution containing 5 mg/ml. Tubes were stored at −20° C. until required.
# (§4) On the day of testing thawed solutions were vortex mixed to ensure homogeneity. 30 μl of solution was removed and added to 570 μl of sterile water in a separate sterile Eppendorf. The thoroughly mixed solution was used to prepare a series of doubling dilutions in water, in a deep well plate. Eleven replicate plates were prepared using a Minitrak by aspirating 20 μl from each well into eleven clear polystyrene 96 well plates.
# (§5) Spores of Aspergillus spp (Aspergillus fumigatus, Aspergillus terreus, Aspergillus niger and Aspergillus flavus) were harvested from cultures grown on Sabarauds agar for 5 days, and resuspended in PBS/Tween 80 to approx 1×10^7 cfu/ml Other filamentous fungi (Fusarium solani, Scedosporium spp., Trichophyton spp., Absidia corymbifera), were grown on Sabarauds agar for 2-10 days and spores/hyphae resuspended in PBS/Tween to give approx 1×10^7 cfU/ml. Candida species (Candida albicans, Candida glabrata, Candida krusei, Candida parapsilosis and Candida tropicalis) were grown on Sabarauds agar, cells were harvested from the agar using a sterile loop and resuspended in PBS/Tween 80 to approx 1×10^6 cfu/ml. Each organism suspension was diluted in RPMI medium, containing 2% glucose and 0.135M MOPS buffer (pH7.0) to 2×10^4 cfu/ml for Aspergillus spp and other filamentous fungi and 2×10^3 cfu/ml for yeast. 80 μl of an organism suspension was added to each well of the plate containing drug dilutions.
# (§6) This produced MIC plates with a drug range 50-0.05 mg/L and organism inocula of 1-2×10^4 cfu/ml for Aspergillus spp and other filamentous fungi and 1-2×10^3 cfu/ml for yeasts. All plates were incubated for 24-48 hrs at 35° C. Growth was assessed by monitoring the optical density at 485 nm for each well. The MIC of a compound is the lowest drug concentration that inhibits growth of an organism by >80% compared with a drug free control. MICs are recorded as mg/L. Other growth media can be used for susceptibility testing, and the activity of the described compounds can also be assessed in a medium comprising, 1% glucose, 1% ammonium chloride and 0.5% yeast extract (YAG medium). To perform MIC tests in this medium, dilutions of compounds are prepared in microtitre plates as described above. Fungal strains to be tested are grown and harvested in an identical manner to that described above, each organism suspension is then diluted in YAG medium to 2×10^4 cfu/ml for Aspergillus spp and other filamentous fungi and 2×10^3 cfu/ml for yeast. 80 μl of an organism suspension was added to each well of the plate containing drug dilutions. This produced MIC plates with a drug range 50-0.05 mg/L and organism inocula of 1-2×10^4 cfu/ml for Aspergillus spp and other filamentous fungi and 1-2×10^3 cfu/ml for yeasts. All plates were incubated for 24 hrs at 35° C. Growth was assessed by monitoring the optical density at 485 nm for each well. The MIC of a compound is the lowest drug concentration that inhibits growth of an organism by >70% compared with a drug free control. MICs are recorded as mg/L. In cases where the MIC of an organism is […]0.05 mg/L the MIC is repeated using a concentration range of 0.5-0.0005 mg/L. MIC tests in YAG medium have more clear-cut endpoints and have slightly lower MICS than those performed in RPMI medium.
# (§7) The following organisms were tested: Aspergillus fumigatus AF293 and Aspergillus fumigatus AF210, Aspergillus niger, Aspergillus terreus, Aspergillus favus, Candida albicans, Candida krusei, Candida tropicalis, Candida glabrata, Candida parapsilosis, Trichophyton rubrum, Trichophyton mentagrophytes, Scedosporium prolificans, Scedosporium apiospermum, Absidia corymbifera, Fusarium solani.
# Candida glabrata = assay: MIC, RPMI medium, Candida glabrata; format: cell-based; settings: Nakaseomyces glabratus, read-out: MIC C. glabrata
# Method: as §2, §3, §4, §5, §6, §7
# Candida krusei = assay: MIC, RPMI medium, Candida krusei; format: cell-based; settings: Pichia kudriavzevii, read-out: MIC C. krusei
# Method: as §2, §3, §4, §5, §6, §7
# Candida parapsilosis = assay: MIC, RPMI medium, Candida parapsilosis; format: cell-based; settings: Lodderomyces parapsilosis, read-out: MIC C. parapsilosis
# Method: as §2, §3, §4, §5, §6, §7
# Candida tropicalis = assay: MIC, RPMI medium, Candida tropicalis; format: cell-based; settings: read-out: MIC C. tropicalis
# Method: as §2, §3, §4, §5, §6, §7
MIC (Aspergillus flavus) [µg/mL],MIC [1] [µg/mL],MIC (Aspergillus niger) [µg/mL],MIC (Aspergillus terreus) [µg/mL],MIC [2] [µg/mL],MIC (A Terreus 49) [µg/mL],MIC (Candida albicans) [µg/mL],MIC (Candida glabrata) [µg/mL],MIC (Candida krusei) [µg/mL],MIC (Candida parapsilosis) [µg/mL],MIC (Candida tropicalis) [µg/mL],SMILES
50,50,> 50,> 50,> 50,12.5,3.1,> 50,> 50,50,12.5,"CN(C)c1ccc(NC(=O)C(=O)c2c(-c3ccccc3)cc3ccccn23)cc1C(=O)O [Example 274, 2-Dimethylamino-5-[2-oxo-2-(2-phenyl-indolizin-3-yl)-acetylamino]-benzoic acid]"
50,50,50,25,50,25,3.1,50,50,50,25,"O=C(Nc1ccc(-c2nnn[nH]2)cc1)C(=O)c1c(-c2ccccc2)cc2ccccn12 [Example 271, 2-Oxo-2-(2-phenyl-indolizin-3-yl)-N-[4-(1H-tetrazol-5-yl)-phenyl]-acetamide]"
0.062,0.25,0.5,0.12,0.5,0.12,1.6,50,50,25,6.25,"O=C1CCN(c2ccc(NC(=O)C(=O)c3c(-c4ccccc4)cc4ccccn34)cc2)CC1 [Example 272, 2-Oxo-N-[4-(4-oxo-piperidin-1-yl)-phenyl]-2-(2-phenyl-indolizin-3-yl)-acetamide]"
0.05,0.05,0.05,0.05,0.015,0.12,6.25,50,50,50,25,"O=C(Nc1ccc(Nc2ccccn2)cc1)C(=O)c1c(-c2ccccc2)cc2ccccn12 [Example 270, 2-Oxo-2-(2-phenyl-indolizin-3-yl)-N-[4-(pyridin-2-ylamino)-phenyl]-acetamide]"
,,,,,,50,> 50,> 50,50,12.5,"COCCNC(=O)C(=O)c1c(-c2cccnc2)cc2ccccn12 [Example 185, N-(2-Methoxy-ethyl)-2-oxo-2-(2-pyridin-3-yl-indolizin-3-yl)-acetamide]"
0.03,0.05,0.4,0.03,0.03,0.015,25,> 50,> 50,> 50,> 50,"COC(=O)C1CCCN1c1ccc(NC(=O)C(=O)c2c(-c3ccccc3)cc3ccccn23)cc1 (stereo not shown) [Example 275, 1-{4-[2-Oxo-2-(2-phenyl-indolizin-3-yl)-acetylamino]-phenyl}-pyrrolidine-2-carboxylic acid methyl ester]"
0.05,0.8,0.4,0.1,0.4,,> 50,25,> 50,> 50,> 50,"O=C(Nc1ccc(C(F)(F)F)cc1)C(=O)c1c(-c2cccnc2)cc2ccccn12 [Example 212, 2-Oxo-2-(2-pyridin-3-yl-indolizin-3-yl)-N-(4-trifluoromethyl-phenyl)-acetamide]"
